Reference: patent US10870619B2 (CJ CHEILJEDANG CORPORATION, priority 2016, dated 2020)
Read-outs that look alike come from different tables or passages of the source. One block for each compound: values may come before it.

Conditions: crystals obtained by the crystallization process of the respective example (pH adjustment, coagulant, pH readjustment, cooling rate vary)
Protocol: As used herein, the term “bulk density” refers to the density measured based on the volume including voids generated between particles when powder is filled into a container. In particular, the density of powder which is measured after treating the powder by tapping a cylinder filled with the powder with a constant force so as to make the powder within the cylinder dense is called tapped bulk density (hereinafter, “BD”).

Compound: CSCC[C@H](N)C(=O)O [Comparative Example 1, L-methionine, reference compound]
BD (tapped bulk density) of the obtained L-methionine crystals: 190 g/L
BD (tapped bulk density) of the obtained L-methionine crystals (listed as Comp. Ex. 1): 190 g/L

Compound: CSCC[C@H](N)C(=O)O [Comparative Example 2, L-methionine, reference compound]
BD (tapped bulk density) of the obtained L-methionine crystals: 520 g/L
BD (tapped bulk density) of the obtained L-methionine crystals (listed as Comp. Ex. 2): 520 g/L

Compound: CSCC[C@H](N)C(=O)O [Comparative Example 3, L-methionine, reference compound]
BD (tapped bulk density) of the obtained L-methionine crystals: 500 g/L
BD (tapped bulk density) of the obtained L-methionine crystals (listed as Comp. Ex. 3): 500 g/L

Compound: CSCC[C@H](N)C(=O)O [Comparative Example 4, L-methionine, reference compound]
BD (tapped bulk density) of the obtained L-methionine crystals: 500 g/L
BD (tapped bulk density) of the obtained L-methionine crystals (listed as Comp. Ex. 4): 500 g/L

Compound: CSCC[C@H](N)C(=O)O [Comparative Example 5, L-methionine, reference compound]
BD (tapped bulk density) of the obtained L-methionine crystals: 490 g/L
BD (tapped bulk density) of the obtained L-methionine crystals (listed as Comp. Ex. 5): 490 g/L

Compound: CSCC[C@H](N)C(=O)O [Comparative Example 6, L-methionine, reference compound]
BD (tapped bulk density) of the obtained L-methionine crystals: 450 g/L
BD (tapped bulk density) of the obtained L-methionine crystals (listed as Comp. Ex. 6): 450 g/L

Compound: CSCC[C@H](N)C(=O)O [Comparative Example 7, L-methionine, reference compound]
BD (tapped bulk density) of the obtained L-methionine crystals: 510 g/L
BD (tapped bulk density) of the obtained L-methionine crystals (listed as Comp. Ex. 7): 510 g/L

Compound: CSCC[C@H](N)C(=O)O [Comparative Example 8, L-methionine, reference compound]
BD (tapped bulk density) of the obtained L-methionine crystals: 450 g/L
BD (tapped bulk density) of the obtained L-methionine crystals (listed as Comp. Ex. 8): 450 g/L

Compound: CSCC[C@H](N)C(=O)O [Comparative Example 9, L-methionine, reference compound]
BD (tapped bulk density) of the obtained L-methionine crystals: 460 g/L
BD (tapped bulk density) of the obtained L-methionine crystals (listed as Comp. Ex. 9): 460 g/L

Compound: CSCC[C@H](N)C(=O)O [Comparative Example 10, L-methionine, reference compound]
BD (tapped bulk density) of the obtained L-methionine crystals: 630 g/L
BD (tapped bulk density) of the obtained L-methionine crystals (listed as Comp. Ex. 10): 630 g/L

Compound: CSCC[C@H](N)C(=O)O [Comparative Example 11, L-methionine, reference compound]
BD (tapped bulk density) of the obtained L-methionine crystals (listed as Comp. Ex. 11): 410 g/L

Compound: CSCC[C@H](N)C(=O)O [Comparative Example 12, L-methionine, reference compound]
BD (tapped bulk density) of the obtained L-methionine crystals: 660 g/L
BD (tapped bulk density) of the obtained L-methionine crystals (listed as Comp. Ex. 12): 660 g/L

Compound: CSCC[C@H](N)C(=O)O [Comparative Example 13, L-methionine, reference compound]
BD (tapped bulk density) of the obtained L-methionine crystals: 400 g/L
BD (tapped bulk density) of the obtained L-methionine crystals (listed as Comp. Ex. 13): 400 g/L

Compound: CSCC[C@H](N)C(=O)O [Example 1, L-methionine]
BD (tapped bulk density) of the obtained L-methionine crystals: 370 g/L
BD (tapped bulk density) of the obtained L-methionine crystals (listed as Ex. 1): 370 g/L

Compound: CSCC[C@H](N)C(=O)O [Example 2, L-methionine]
BD (tapped bulk density) of the obtained L-methionine crystals: 350 g/L
BD (tapped bulk density) of the obtained L-methionine crystals (listed as Ex. 2): 350 g/L

Compound: CSCC[C@H](N)C(=O)O [Example 3, L-methionine]
BD (tapped bulk density) of the obtained L-methionine crystals: 610 g/L
BD (tapped bulk density) of the obtained L-methionine crystals (listed as Ex. 3): 610 g/L

Compound: CSCC[C@H](N)C(=O)O [Example 4, L-methionine]
BD (tapped bulk density) of the obtained L-methionine crystals: 590 g/L
BD (tapped bulk density) of the obtained L-methionine crystals (listed as Ex. 4): 590 g/L

Compound: CSCC[C@H](N)C(=O)O [Example 5, L-methionine]
BD (tapped bulk density) of the obtained L-methionine crystals: 590 g/L
BD (tapped bulk density) of the obtained L-methionine crystals (listed as Ex. 5): 590 g/L

Compound: CSCC[C@H](N)C(=O)O [Example 6, L-methionine]
BD (tapped bulk density) of the obtained L-methionine crystals: 580 g/L
BD (tapped bulk density) of the obtained L-methionine crystals (listed as Ex. 6): 580 g/L

Compound: CSCC[C@H](N)C(=O)O [Example 7, L-methionine]
BD (tapped bulk density) of the obtained L-methionine crystals: 570 g/L
BD (tapped bulk density) of the obtained L-methionine crystals (listed as Ex. 7): 570 g/L

Compound: CSCC[C@H](N)C(=O)O [Example 8, L-methionine]
BD (tapped bulk density) of the obtained L-methionine crystals: 570 g/L
BD (tapped bulk density) of the obtained L-methionine crystals (listed as Ex. 8): 570 g/L

Compound: CSCC[C@H](N)C(=O)O [Example 9, L-methionine]
BD (tapped bulk density) of the obtained L-methionine crystals: 560 g/L
BD (tapped bulk density) of the obtained L-methionine crystals (listed as Ex. 9): 560 g/L

Now from value to compound:

BD (tapped bulk density) of the obtained L-methionine crystals: 580 g/L
BD (tapped bulk density) of the obtained L-methionine crystals (listed as Ex. 10): 580 g/L
Compound: CSCC[C@H](N)C(=O)O [Example 10, L-methionine]

BD (tapped bulk density) of the obtained L-methionine crystals: 550 g/L
BD (tapped bulk density) of the obtained L-methionine crystals (listed as Ex. 11): 550 g/L
Compound: CSCC[C@H](N)C(=O)O [Example 11, L-methionine]

BD (tapped bulk density) of the obtained L-methionine crystals: 560 g/L
BD (tapped bulk density) of the obtained L-methionine crystals (listed as Ex. 12): 560 g/L
Compound: CSCC[C@H](N)C(=O)O [Example 12, L-methionine]

BD (tapped bulk density) of the obtained L-methionine crystals: 530 g/L
BD (tapped bulk density) of the obtained L-methionine crystals (listed as Ex. 13): 530 g/L
Compound: CSCC[C@H](N)C(=O)O [Example 13, L-methionine]

BD (tapped bulk density) of the obtained L-methionine crystals: 600 g/L
BD (tapped bulk density) of the obtained L-methionine crystals (listed as Ex. 14): 600 g/L
Compound: CSCC[C@H](N)C(=O)O [Example 14, L-methionine]

BD (tapped bulk density) of the obtained L-methionine crystals: 500 g/L
BD (tapped bulk density) of the obtained L-methionine crystals (listed as Ex. 15): 500 g/L
Compound: CSCC[C@H](N)C(=O)O [Example 15, L-methionine]

BD (tapped bulk density) of the obtained L-methionine crystals: 480 g/L
BD (tapped bulk density) of the obtained L-methionine crystals (listed as Ex. 16): 480 g/L
Compound: CSCC[C@H](N)C(=O)O [Example 16, L-methionine]

BD (tapped bulk density) of the obtained L-methionine crystals: 690 g/L
BD (tapped bulk density) of the obtained L-methionine crystals (listed as Ex. 17): 690 g/L
Compound: CSCC[C@H](N)C(=O)O [Example 17, L-methionine]

BD (tapped bulk density) of the obtained L-methionine crystals: 730 g/L
BD (tapped bulk density) of the obtained L-methionine crystals (listed as Ex. 18): 730 g/L
Compound: CSCC[C@H](N)C(=O)O [Example 18, L-methionine]

BD (tapped bulk density) of the obtained L-methionine crystals: 750 g/L
BD (tapped bulk density) of the obtained L-methionine crystals (listed as Ex. 19): 750 g/L
Compound: CSCC[C@H](N)C(=O)O [Example 19, L-methionine]

BD (tapped bulk density) of the obtained L-methionine crystals: 760 g/L
BD (tapped bulk density) of the obtained L-methionine crystals (listed as Ex. 20): 760 g/L
Compound: CSCC[C@H](N)C(=O)O [Example 20, L-methionine]

BD (tapped bulk density) of the obtained L-methionine crystals: 800 g/L
BD (tapped bulk density) of the obtained L-methionine crystals (listed as Ex. 21): 800 g/L
Compound: CSCC[C@H](N)C(=O)O [Example 21, L-methionine]

BD (tapped bulk density) of the obtained L-methionine crystals: 700 g/L
BD (tapped bulk density) of the obtained L-methionine crystals (listed as Ex. 22): 700 g/L
Compound: CSCC[C@H](N)C(=O)O [Example 22, L-methionine]
